Where a SMILES comes first, the peptide text is derived from it. [ ]: non-standard residue; d: D form. The star is where a group is joined. NMeF = CN[C@@H](Cc1ccccc1)C(=O)O; Pip = O=C(O)[C@@H]1CCCCN1; ClAc = O=C(CCl)*
Tests used:
HCT-116 = assay: cells; settings: Homo sapiens, HCT-116, 96 h
Description: Antitumor activity against human HCT-116 cells assessed as inhibition of cell growth measured after 96 hrs by MTT assay

MCF7 = assay: cells; settings: Homo sapiens, MCF7, 96 h
Description: Antitumor activity against human MCF7 cells assessed as inhibition of cell growth measured after 96 hrs by MTT assay

[1] = target: T1, Peptidyl-prolyl cis-trans isomerase NIMA-interacting 1 (Homo sapiens, UniProt Q13526); assay: Inhibition of human Pin1 extracted from Escherichia coli BL21 (DE3) cells using TAMRA labelled Bth-(D-Thr(PO3H2))-Pip-Nal-NH2 peptide probe as substrate by fluorescence polarization assay
[2] = target: T1, Peptidyl-prolyl cis-trans isomerase NIMA-interacting 1; assay: Inhibition of human Pin1 using Suc-Ala-Glu-Pro-Phe04-nitroanilide as peptide substrate preincubated for 14 hrs followed by substrate addition and measured immediately by chymotrypsin-coupled PPIase assay
[3] = Stability in mouse liver microsomes assessed as half life; format: ADME, Microsome

T1 sequence (Q13526 whole entry): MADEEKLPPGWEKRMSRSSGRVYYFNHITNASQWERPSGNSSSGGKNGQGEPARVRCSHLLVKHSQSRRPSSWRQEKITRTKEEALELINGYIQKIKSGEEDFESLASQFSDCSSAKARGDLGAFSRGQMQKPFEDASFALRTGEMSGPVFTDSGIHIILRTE

Structure (SMILES) | IC50 (HCT-116) | IC50 (MCF7) | IC50 [1] | IC50 [2] | half-life [3]
CC(C)(C)CN(C(=O)CCl)C1CCS(=O)(=O)C1 (configuration not stated) | 7.54 µM | > 100 µM | 0.12 µM | 0.12 µM | 
O=S1(=O)CCC(Nc2nc(Cl)nc(Cl)n2)C1 (configuration not stated) |  |  | 144 µM |  | 
O=[N+]([O-])c1cnc(Cl)nc1N(Cc1ccc(-c2cccc3ccoc23)s1)C1CCS(=O)(=O)C1 (configuration not stated) | 2.6 µM | 4.24 µM |  |  | 
O=[N+]([O-])c1cnc(Cl)nc1N(CC1CCCCC1)C1CCS(=O)(=O)C1 (configuration not stated) |  |  | 101 µM |  | 

The next lines start with the values.

IC50 (HCT-116) | IC50 (MCF7) | IC50 [1] | IC50 [2] | half-life [3] | Structure (SMILES)
3.35 µM | 4.95 µM |  |  |  | O=[N+]([O-])c1cnc(Cl)nc1N(Cc1ccc(-c2ccc3ccccc3c2)s1)C1CCS(=O)(=O)C1 (configuration not stated)
5.04 µM | > 100 µM |  |  |  | O=[N+]([O-])c1cnc(Cl)nc1N(Cc1cccc2ccccc12)C1CCS(=O)(=O)C1 (configuration not stated)
> 100 µM | 5.26 µM |  |  |  | O=[N+]([O-])c1cnc(N(Cc2coc3ccccc23)C2CCS(=O)(=O)C2)nc1Cl (configuration not stated)
> 100 µM | 3.94 µM |  |  |  | O=[N+]([O-])c1cnc(N(Cc2ccc3ccccc3c2)C2CCS(=O)(=O)C2)nc1Cl (configuration not stated)
 |  |  |  | 1.2 min | CCOC(=O)[C@H](CCCNC(=N)N)NC(=O)[C@H](Cc1c[nH]c2ccccc12)NC(=O)[C@@H]1CCCCN1C(=O)[C@H](Cc1ccccc1)N(C)C(=O)CCl (ClAc-[NMeF][Pip]WR-OEt)

Source: ChEMBL document CHEMBL6096711, “Discovery of Novel Pyrimidine Derivatives as Human Pin1 Covalent Inhibitors” (ACS Med Chem Lett, 2025)
